Reference: patent publication US20240409585A1, “MACROCYCLIC IMMUNOMODULATORS” (priority 2021, published 2024)
Bridge positions count the residues as written; N and C are the ends. Square brackets hold non-standard residues; d marks the D form. Peptide text beside a SMILES is read from it. Bip = N[C@@H](Cc1ccc(-c2ccccc2)cc1)C(=O)O; hTyr = N[C@@H](CCc1ccc(O)cc1)C(=O)O; mTyr = N[C@@H](Cc1cccc(O)c1)C(=O)O; h4Pal = N[C@@H](CCc1ccncc1)C(=O)O; hArg = N=C(N)NCCCC[C@H](N)C(=O)O; hPhe = N[C@@H](CCc1ccccc1)C(=O)O; Cit = NC(=O)NCCC[C@H](N)C(=O)O; NMeA = CN[C@@H](C)C(=O)O; Orn = NCCC[C@H](N)C(=O)O; Dab = NCC[C@H](N)C(=O)O; Dap = NC[C@H](N)C(=O)O

target: T1, PE-labeled human PD-L1-Ig binding to Jurkat cell line over-expressing human PD-1 (Jurkat-PD-1) (Homo sapiens, UniProt Q15116); assay: Jurkat-PD-1 Cell Binding High-Content Screening Assay (CBA): Method 1; details: Jurkat-hPD-1 cells, PE-labeled PD-L1-Ig 20 nM final; read-out: Jurkat HPDL1 PD1 IC50 (uM) (Method 1)
T1 construct: expressed in transfected cells; host or cells: Jurkat
T1 sequence (Q15116 25-288): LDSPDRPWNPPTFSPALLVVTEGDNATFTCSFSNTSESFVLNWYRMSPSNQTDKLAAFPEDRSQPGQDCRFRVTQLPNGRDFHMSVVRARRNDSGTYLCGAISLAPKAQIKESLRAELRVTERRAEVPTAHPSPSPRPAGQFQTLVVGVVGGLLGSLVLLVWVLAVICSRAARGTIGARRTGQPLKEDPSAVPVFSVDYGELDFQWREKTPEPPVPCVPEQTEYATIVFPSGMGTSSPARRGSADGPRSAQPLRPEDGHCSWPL
Description: Phycoerythrin (PE) was covalently linked to the Ig epitope tag of human PD-L1-Ig and fluorescently-labeled PD-L1-Ig was used for binding studies with a Jurkat cell line over-expressing human PD-1 (Jurkat-PD-1). Briefly, 8×10^3 Jurkat-hPD-1 cells were seeded into 384 well plates in 20 μl of DMEM supplemented with 10% fetal calf serum. 100 nl of compound was added to cells followed by incubation at 37° C. for 2 hours. Then, 5 μl of PE-labeled PD-L1-Ig (20 nM final), diluted in DMEM supplemented with 10% fetal calf serum. […] Data was collected and processed using a Cell Insight NXT High Content Imager and associated software.

IC50 [µM]	Structure (SMILES)
0.02	CC(C)C[C@@H]1NC(=O)[C@H](CCN)NC(=O)[C@@H](CC(C)C)NC(=O)[C@H](C)N(C)C(=O)[C@H](CCCNC(N)=O)NC(=O)[C@H](Cc2ccc(-c3ccccc3)cc2)NC(=O)[C@H](C(C)C)NC(=O)[C@H](Cc2c[nH]c3ccccc23)NC(=O)[C@H](CC(=O)O)NC(=O)[C@H](Cc2ccc(O)cc2)NC(=O)[C@H](Cc2cnc[nH]2)NC(=O)CSC[C@@H](C(=O)N[C@@H](C)C(N)=O)NC(=O)[C@H]([C@@H](C)O)NC(=O)[C@H](C(C)C)NC1=O [Compound 1356] ({CH2CO}-HYDWV[Bip][Cit][NMeA][dL][Dab]LVTCA-NH2; thioether N-14)
0.06	CC(C)C[C@@H]1NC(=O)[C@H](CCN)NC(=O)[C@@H](CC(C)C)NC(=O)[C@H](C)N(C)C(=O)[C@H](CCCNC(N)=O)NC(=O)[C@H](Cc2ccc(-c3ccccc3)cc2)NC(=O)[C@H](C(C)C)NC(=O)[C@H](Cc2c[nH]c3ccccc23)NC(=O)[C@H](CC(=O)O)NC(=O)[C@H](Cc2ccc(O)cc2)NC(=O)[C@H](CCC(N)=O)NC(=O)CSC[C@@H](C(=O)N[C@@H](C)C(N)=O)NC(=O)[C@H]([C@@H](C)O)NC(=O)[C@H](C(C)C)NC1=O [Compound 1357] ({CH2CO}-QYDWV[Bip][Cit][NMeA][dL][Dab]LVTCA-NH2; thioether N-14)
0.01	CC(C)C[C@@H]1NC(=O)[C@H](CCN)NC(=O)[C@@H](CC(C)C)NC(=O)[C@H](C)N(C)C(=O)[C@H](C(C)C)NC(=O)[C@H](Cc2ccc(-c3ccccc3)cc2)NC(=O)[C@H](C(C)C)NC(=O)[C@H](Cc2c[nH]c3ccccc23)NC(=O)[C@H](CC(=O)O)NC(=O)[C@H](Cc2ccc(O)cc2)NC(=O)[C@H](Cc2cnc[nH]2)NC(=O)CSC[C@@H](C(=O)N[C@@H](C)C(N)=O)NC(=O)[C@H]([C@@H](C)O)NC(=O)[C@H](C(C)C)NC1=O [Compound 1358] ({CH2CO}-HYDWV[Bip]V[NMeA][dL][Dab]LVTCA-NH2; thioether N-14)
0.05	CC(C)C[C@@H]1NC(=O)[C@H](CCN)NC(=O)[C@@H](CC(C)C)NC(=O)[C@H](C)N(C)C(=O)[C@H](C(C)C)NC(=O)[C@H](Cc2ccc(-c3ccccc3)cc2)NC(=O)[C@H](C(C)C)NC(=O)[C@H](Cc2c[nH]c3ccccc23)NC(=O)[C@H](CC(=O)O)NC(=O)[C@H](Cc2ccc(O)cc2)NC(=O)[C@H](CCC(N)=O)NC(=O)CSC[C@@H](C(=O)N[C@@H](C)C(N)=O)NC(=O)[C@H]([C@@H](C)O)NC(=O)[C@H](C(C)C)NC1=O [Compound 1359] ({CH2CO}-QYDWV[Bip]V[NMeA][dL][Dab]LVTCA-NH2; thioether N-14)
0.02	CC(C)C[C@@H]1NC(=O)[C@H](CCN)NC(=O)[C@@H](CC(C)C)NC(=O)[C@H](C)N(C)C(=O)[C@H](C(C)C)NC(=O)[C@H](Cc2ccc(-c3ccccc3)cc2)NC(=O)[C@H](C(C)C)NC(=O)[C@H](Cc2c[nH]c3ccccc23)NC(=O)[C@H](CC(=O)O)NC(=O)[C@H](Cc2ccc(O)cc2)NC(=O)[C@H](CN)NC(=O)CSC[C@@H](C(=O)N[C@@H](C)C(N)=O)NC(=O)[C@H]([C@@H](C)O)NC(=O)[C@H](C(C)C)NC1=O [Compound 1360] ({CH2CO}-[Dap]YDWV[Bip]V[NMeA][dL][Dab]LVTCA-NH2; thioether N-14)
0.01	CC(C)C[C@@H]1NC(=O)[C@H](CCN)NC(=O)[C@@H](CC(C)C)NC(=O)[C@H](C)N(C)C(=O)[C@H](C(C)C)NC(=O)[C@H](Cc2ccc(-c3ccccc3)cc2)NC(=O)[C@H](C(C)C)NC(=O)[C@H](Cc2c[nH]c3ccccc23)NC(=O)[C@H](CC(=O)O)NC(=O)[C@H](Cc2ccc(O)cc2)NC(=O)[C@H](CCN)NC(=O)CSC[C@@H](C(=O)N[C@@H](C)C(N)=O)NC(=O)[C@H]([C@@H](C)O)NC(=O)[C@H](C(C)C)NC1=O [Compound 1361] ({CH2CO}-[Dab]YDWV[Bip]V[NMeA][dL][Dab]LVTCA-NH2; thioether N-14)
0.03	CC(C)C[C@@H]1NC(=O)[C@H](CCN)NC(=O)[C@@H](CC(C)C)NC(=O)[C@H](C)N(C)C(=O)[C@H](CCCN)NC(=O)[C@H](Cc2ccc(-c3ccccc3)cc2)NC(=O)[C@H](C(C)C)NC(=O)[C@H](Cc2c[nH]c3ccccc23)NC(=O)[C@H](CC(=O)O)NC(=O)[C@H](Cc2ccc(O)cc2)NC(=O)[C@H](Cc2cnc[nH]2)NC(=O)CSC[C@@H](C(=O)N[C@@H](C)C(N)=O)NC(=O)[C@H]([C@@H](C)O)NC(=O)[C@H](C(C)C)NC1=O [Compound 1362] ({CH2CO}-HYDWV[Bip][Orn][NMeA][dL][Dab]LVTCA-NH2; thioether N-14)

The remaining lines, values behind:

Structure (SMILES)	IC50 [µM]
CC(C)C[C@@H]1NC(=O)[C@H](CCN)NC(=O)[C@@H](CC(C)C)NC(=O)[C@H](C)N(C)C(=O)[C@H](CCCNC(N)=O)NC(=O)[C@H](Cc2ccc(-c3ccccc3)cc2)NC(=O)[C@H](C(C)C)NC(=O)[C@H](Cc2c[nH]c3ccccc23)NC(=O)[C@H](CC(=O)O)NC(=O)[C@H](Cc2ccc(O)cc2)NC(=O)[C@H](CCCN)NC(=O)CSC[C@@H](C(=O)N[C@@H](C)C(N)=O)NC(=O)[C@H]([C@@H](C)O)NC(=O)[C@H](C(C)C)NC1=O [Compound 1347] ({CH2CO}-[Orn]YDWV[Bip][Cit][NMeA][dL][Dab]LVTCA-NH2; thioether N-14)	0.03
CC(C)C[C@@H]1NC(=O)[C@H](CCN)NC(=O)[C@@H](CC(C)C)NC(=O)[C@H](C)N(C)C(=O)[C@H](CCCNC(N)=O)NC(=O)[C@H](Cc2ccc(-c3ccccc3)cc2)NC(=O)[C@H](C(C)C)NC(=O)[C@H](Cc2c[nH]c3ccccc23)NC(=O)[C@H](CC(=O)O)NC(=O)[C@H](Cc2ccc(O)cc2)NC(=O)[C@H](CCCCN)NC(=O)CSC[C@@H](C(=O)N[C@@H](C)C(N)=O)NC(=O)[C@H]([C@@H](C)O)NC(=O)[C@H](C(C)C)NC1=O [Compound 1348] ({CH2CO}-KYDWV[Bip][Cit][NMeA][dL][Dab]LVTCA-NH2; thioether N-14)	0.05
CC(C)C[C@@H]1NC(=O)[C@H](CCN)NC(=O)[C@@H](CC(C)C)NC(=O)[C@H](C)N(C)C(=O)[C@H](CCCNC(N)=O)NC(=O)[C@H](Cc2ccc(-c3ccccc3)cc2)NC(=O)[C@H](C(C)C)NC(=O)[C@H](Cc2c[nH]c3ccccc23)NC(=O)[C@H](CC(=O)O)NC(=O)[C@H](Cc2ccc(O)cc2)NC(=O)[C@H](CCCCNC(=N)N)NC(=O)CSC[C@@H](C(=O)N[C@@H](C)C(N)=O)NC(=O)[C@H]([C@@H](C)O)NC(=O)[C@H](C(C)C)NC1=O [Compound 1349] ({CH2CO}-[hArg]YDWV[Bip][Cit][NMeA][dL][Dab]LVTCA-NH2; thioether N-14)	0.06
CC(C)C[C@@H]1NC(=O)[C@H](CCN)NC(=O)[C@@H](CC(C)C)NC(=O)[C@H](C)N(C)C(=O)[C@H](CCCNC(=N)N)NC(=O)[C@H](Cc2ccc(-c3ccccc3)cc2)NC(=O)[C@H](C(C)C)NC(=O)[C@H](Cc2c[nH]c3ccccc23)NC(=O)[C@H](CC(=O)O)NC(=O)[C@H](Cc2ccc(O)cc2)NC(=O)[C@H](CN)NC(=O)CSC[C@@H](C(=O)N[C@@H](C)C(N)=O)NC(=O)[C@H]([C@@H](C)O)NC(=O)[C@H](C(C)C)NC1=O [Compound 1350] ({CH2CO}-[Dap]YDWV[Bip]R[NMeA][dL][Dab]LVTCA-NH2; thioether N-14)	0.03
CC(C)C[C@@H]1NC(=O)[C@H](CCN)NC(=O)[C@@H](CC(C)C)NC(=O)[C@H](C)N(C)C(=O)[C@H](CCCNC(N)=O)NC(=O)[C@H](Cc2ccc(-c3ccccc3)cc2)NC(=O)[C@H](C(C)C)NC(=O)[C@H](Cc2c[nH]c3ccccc23)NC(=O)[C@H](CC(=O)O)NC(=O)[C@H](Cc2ccc(O)cc2)NC(=O)[C@H](CCCNC(=N)N)NC(=O)CSC[C@@H](C(=O)N[C@@H](C)C(N)=O)NC(=O)[C@H]([C@@H](C)O)NC(=O)[C@H](C(C)C)NC1=O [Compound 1351] ({CH2CO}-RYDWV[Bip][Cit][NMeA][dL][Dab]LVTCA-NH2; thioether N-14)	0.05
CC(C)C[C@@H]1NC(=O)[C@H](CCN)NC(=O)[C@@H](CC(C)C)NC(=O)[C@H](C)N(C)C(=O)[C@H](CCCNC(=N)N)NC(=O)[C@H](Cc2ccc(-c3ccccc3)cc2)NC(=O)[C@H](C(C)C)NC(=O)[C@H](Cc2c[nH]c3ccccc23)NC(=O)[C@H](CC(=O)O)NC(=O)[C@H](CCc2ccncc2)NC(=O)[C@H](CC(N)=O)NC(=O)CSC[C@@H](C(=O)N[C@@H](C)C(N)=O)NC(=O)[C@H]([C@@H](C)O)NC(=O)[C@H](C(C)C)NC1=O [Compound 1352] ({CH2CO}-N[h4Pal]DWV[Bip]R[NMeA][dL][Dab]LVTCA-NH2; thioether N-14)	0.01
CC(C)C[C@@H]1NC(=O)[C@H](CCN)NC(=O)[C@@H](CC(C)C)NC(=O)[C@H](C)N(C)C(=O)[C@H](CCCNC(=N)N)NC(=O)[C@H](Cc2ccc(-c3ccccc3)cc2)NC(=O)[C@H](C(C)C)NC(=O)[C@H](Cc2c[nH]c3ccccc23)NC(=O)[C@H](CC(=O)O)NC(=O)[C@H](CCc2ccccc2)NC(=O)[C@H](CC(N)=O)NC(=O)CSC[C@@H](C(=O)N[C@@H](C)C(N)=O)NC(=O)[C@H]([C@@H](C)O)NC(=O)[C@H](C(C)C)NC1=O [Compound 1353] ({CH2CO}-N[hPhe]DWV[Bip]R[NMeA][dL][Dab]LVTCA-NH2; thioether N-14)	0.03
CC(C)C[C@@H]1NC(=O)[C@H](CCN)NC(=O)[C@@H](CC(C)C)NC(=O)[C@H](C)N(C)C(=O)[C@H](CCCNC(=N)N)NC(=O)[C@H](Cc2ccc(-c3ccccc3)cc2)NC(=O)[C@H](C(C)C)NC(=O)[C@H](Cc2c[nH]c3ccccc23)NC(=O)[C@H](CC(=O)O)NC(=O)[C@H](CCc2ccc(O)cc2)NC(=O)[C@H](CC(N)=O)NC(=O)CSC[C@@H](C(=O)N[C@@H](C)C(N)=O)NC(=O)[C@H]([C@@H](C)O)NC(=O)[C@H](C(C)C)NC1=O [Compound 1354] ({CH2CO}-N[hTyr]DWV[Bip]R[NMeA][dL][Dab]LVTCA-NH2; thioether N-14)	0.02
CC(C)C[C@@H]1NC(=O)[C@H](CCN)NC(=O)[C@@H](CC(C)C)NC(=O)[C@H](C)N(C)C(=O)[C@H](CCCNC(=N)N)NC(=O)[C@H](Cc2ccc(-c3ccccc3)cc2)NC(=O)[C@H](C(C)C)NC(=O)[C@H](Cc2c[nH]c3ccccc23)NC(=O)[C@H](CC(=O)O)NC(=O)[C@H](Cc2cccc(O)c2)NC(=O)[C@H](CC(N)=O)NC(=O)CSC[C@@H](C(=O)N[C@@H](C)C(N)=O)NC(=O)[C@H]([C@@H](C)O)NC(=O)[C@H](C(C)C)NC1=O [Compound 1355] ({CH2CO}-N[mTyr]DWV[Bip]R[NMeA][dL][Dab]LVTCA-NH2; thioether N-14)	0.13
